Test results: US20120083522A1, “MODULATION OF INFLAMMATORY RESPONSES BY FACTOR XI” (Isis Pharmaceuitcals, inc., priority 2009, published 2012)
In the oligonucleotide strings, read from the 5' end, every base follows the letter of its sugar. An asterisk marks phosphorothioate; unmarked linkages are phosphodiester. Other units and linkages are bracketed, terminal groups are in braces. A string of capitals states the bases alone. e = 2'-O-(2-methoxyethyl) (MOE); [5mC] = 5-methylcytosine; d = 2'-deoxy (DNA)

Experiments:
[1] = system: human Factor XI mRNA; assay: Antisense inhibition of human Factor XI in HepG2 cells, 75 nM, lipofectin (Example 1); assay type: cell-based; conditions: HepG2, 75 nM, approximately 24 hours, gapmers targeted to SEQ ID NO: 1, relative to untreated control cells
Method: Antisense oligonucleotides targeted to a Factor XI nucleic acid were tested for their effects on Factor XI mRNA in vitro. Cultured HepG2 cells at a density of 10,000 cells per well were transfected using lipofectin reagent with 75 nM antisense oligonucleotide. After a treatment period of approximately 24 hours, RNA was isolated from the cells and Factor XI mRNA levels were measured by quantitative real-time PCR. Factor XI mRNA levels were adjusted according to total RNA content, as measured by RIBOGREEN®. Results are presented as percent inhibition of Factor XI, relative to untreated control cells.
The chimeric antisense oligonucleotides in Tables 1 and 2 were designed as 5-10-5 MOE gapmers. The gapmers are 20 nucleotides in length, wherein the central gap segment is comprised of 10 2′-deoxynucleotides and is flanked on both sides (in the 5′ and 3′ directions) by wings comprising 5 nucleotides each. Each nucleotide in the 5′ wing segment and each nucleotide in the 3′ wing segment has a 2′-MOE modification. The internucleoside linkages throughout each gapmer are phosphorothioate (P═S) linkages. All cytidine residues throughout each gapmer are 5-methylcytidines. “Target start site” indicates the 5′-most nucleotide to which the gapmer is targeted. “Target stop site” indicates the 3′-most nucleotide to which the gapmer is targeted. […]

[2] = Cynomolgus monkeys: body and organ weights (Example 30); assay type: in vivo; conditions: day 55
Method: (§1) Groups, each consisting of two male and two female monkeys, were injected subcutaneously with 25 mg/kg of ISIS 416850, ISIS 449709, ISIS 445522, ISIS 449710, ISIS 449707, ISIS 449711, ISIS 449708, 416858 and ISIS 445531. Antisense oligonucleotide was administered to the monkeys at 25 mg/kg three times per week for week 1 and 25 mg/kg twice per week for weeks 2 to 8. A control group, consisting of two male and two female monkeys was injected subcutaneously with PBS according to the same dosing regimen. Body weights were taken 14 days and 7 days before the start of treatment and were then measured weekly throughout the treatment period. Blood samples were collected 14 days and 5 days before the start of treatment and subsequently several times during the dosing regimen for measurement of various hematologic factors. On day 55, the monkeys were euthanized by exsanguination while under deep anesthesia, and organs harvested for further analysis.
Organ weights were taken after the animals were euthanized on day 55, and livers, kidneys and spleens were harvested.

[3] = system: IL-1β, IL-6, IFN-γ, TNF-α, IL-8, MIP-1α, MCP-1, MIP-10, RANTES; assay: Cynomolgus monkeys: cytokine and chemokine assays (Example 30); assay type: in vivo
Method: as §1
Blood samples obtained from all monkey groups were sent to Pierce Biotechnology (Woburn, Mass.) for measurements of chemokine and cytokine levels. Levels of IL-1β, IL-6, IFN-γ, and TNF-α were measured using the respective primate antibodies and levels of IL-8, MIP-1α, MCP-1, MIP-10 and RANTES were measured using the respective cross-reacting human antibodies. Measurements were taken 14 days before the start of treatment and on day 55, when the monkeys were euthanized.

[4] = system: murine Factor XI mRNA; assay: In vivo antisense inhibition of murine Factor XI: liver RNA analysis (Example 10); conditions: BALB/c mice, relative to PBS control
Method: Several antisense oligonucleotides targeted to murine Factor XI mRNA (GENBANK Accession No. NM_028066.1, incorporated herein as SEQ ID NO: 6) showing statistically significant dose-dependent inhibition from the in vitro study were evaluated in vivo. BALB/c mice were treated with ISIS 404057 ([…], target start site 487, incorporated herein as SEQ ID NO: 10) and ISIS 404071 ([…], target start site 869, incorporated herein as SEQ ID NO: 11).
BALB/c mice were injected with 5 mg/kg, 10 mg/kg, 25 mg/kg, or 50 mg/kg of ISIS 404057 or ISIS 404071 twice a week for 3 weeks. A control group of mice was injected with phosphate buffered saline (PBS) twice a week for 3 weeks. Mice were sacrificed 5 days after receiving the last dose. Whole liver was harvested for RNA analysis and plasma was collected for protein analysis.
RNA was extracted from liver tissue for real-time PCR analysis of Factor XI. […] Results are presented as percent inhibition of Factor XI, relative to control.

[5] = system: collagen-induced arthritis model; assay: Arthritis Study B: collagen-induced arthritis, clinical effects (Example 11); assay type: in vivo, DBA/1J mice
Method: The effect of inhibition of Factor XI and its role in fibrin accumulation in the joints leading to joint inflammation and rheumatoid arthritis was evaluated in a murine collagen-induced arthritis (CIA) model. […] Arthritis induced in mice administered collagen can be visually assessed and clinically scored as described by Marty et al. (J Clin Invest, 107:631-640, 2001) where 1 point is given for each swollen digit except the thumb (maximum, 4), 1 point is given for the tarsal or carpal joint, and 1 point is given for the metatarsal or metacarpal joint with a maximum score of […]. Each paw was graded individually, the cumulative clinical arthritic score per mouse reaching a maximum of 22 points
(§2) In a group of 20 DBA/1J mice, 20 mg/kg of ISIS 404071 were injected subcutaneously twice a week for ten weeks. In a second group of 20 DBA/1J mice, 20 mg/kg of ISIS 404057 were injected subcutaneously twice a week for ten weeks. In a third control group of 20 DBA/1J mice, 20 mg/kg of ISIS 421208 were injected subcutaneously twice a week for ten weeks. Two control groups of 20 mice each were injected with PBS twice a week for ten weeks.
Two and a half weeks after the first oligonucleotide dose, type II bovine collagen in complete Freund's adjuvant was injected subcutaneously at the base of the tail in all the experimental groups and one PBS control group. A booster injection containing 100 μg collagen type II in incomplete Freund's adjuvant was injected subcutaneously at the base of the tail at a different injection site on day 21 after the first collagen injection in these groups.
(§3) Mice in all groups were examined daily after day 30 after the first collagen injection for the visual appearance of arthritis in peripheral joints. The results in Table 22 are expressed as percent change compared to the PBS control except for the liver and spleen weight.

[6] = system: DSS-induced colitis model; assay: Colitis Study B: body weight and colon length; assay type: in vivo, Swiss Webb mice; conditions: for Body weight / Colon length: DSS-induced colitis, day 7, 20 mg/kg s.c. twice a week for 3 weeks, percent change compared to the PBS control
Method: (§4) In a first group of 8 Swiss Webb mice, 20 mg/kg of ISIS 404071 was injected subcutaneously twice a week for 3 weeks. In a second group of 8 Swiss Webb mice, 20 mg/kg of ISIS 404057 was subcutaneously injected twice a week for 3 weeks. In a third control group of 8 Swiss Webb mice, 20 mg/kg of ISISI 421208 was injected subcutaneously twice a week for 3 weeks. Two control groups of 8 mice each were injected with PBS twice a week for 3 weeks. After the oligonucleotide treatment, 4% DSS in water was administered ad libitum for 6 days to all the experimental groups and one PBS control group.
(§5) Mice in all groups were weighed at day 0 and daily after administration of DSS. Mice were sacrificed at the end of the study on day 7 after DSS was administered, their livers and colons were harvested for RNA analysis, and their body weights and colon lengths were measured.

[7] = system: Factor XI mRNA; assay: Arthritis Study B: liver Factor XI mRNA; assay type: in vivo, DBA/1J mice; conditions: FIG. 4B
Method: as §2, §3
The difference between the effective of the two Factor XI antisense oligonucleotides may be related to the relative effectiveness of each oligonucleotide in inhibiting Factor XI mRNA as shown in FIG. 4B.

[8] = system: murine Factor XI mRNA; assay: Colitis Study B: Factor XI mRNA in the liver; assay type: in vivo, Swiss Webb mice; conditions: DSS-induced colitis, day 7, 20 mg/kg s.c. twice a week for 3 weeks, percent change compared to the PBS control
Method: as §4, §5
RT-PCR analysis of Factor XI mRNA was performed. As presented in Table 27 and FIG. 10, antisense oligonucleotides targeting Factor XI achieved statistically significant dose-dependent reduction of murine Factor XI over the PBS control in the liver. All the measurements are normalized to cyclophilin.
All the results in Table 27 are expressed as percent change compared to the PBS control.

[9] = Arthritis Study B: liver and spleen weight, ALT, AST; assay type: in vivo; conditions: collagen-treated DBA/1J mice, 20 mg/kg s.c. twice a week for ten weeks
Method: as §2, §3

[10] = system: OVA/alum-induced asthma model; assay: OVA-induced asthma model: mucus production (Example 13); assay type: in vivo, BALB/c mice; conditions: BALB/c mice, 50 mg/kg s.c. twice a week for 4 weeks, PAS stain of lung sections
Method: (§6) The mice were divided into four treatment groups of 5 mice each. One group received subcutaneous injections of ISIS 404071 at a dose of 50 mg/kg twice a week for 4 weeks. One group of mice received subcutaneous injections of control oligonucleotide, ISIS 421208, which is a mismatch oligonucleotide sequence of ISIS 404071, at a dose of 50 mg/kg twice a week for 4 weeks. Two groups of mice received subcutaneous injections of PBS twice a week for 4 weeks. One PBS group remained untreated and served as the control group. The second PBS group and both the oligonucleotide treated groups were injected with OVA/alum on days 0 and 14 and nebulized with OVA in PBS on days 24, 25, and 26. The first OVA application served to sensitize the mice against OVA while the second was a challenge application to provoke an asthmatic reaction. Two days following the final dose, the mice were euthanized, bronchial lavage (BAL) was collected and analyses done.
Lung sections were stained with periodic acid […] (PAS) base stain that stains mucus, which is produced during asthma attacks (Rogers, D. F. Curr. Opin Pharmacol. 2004. 4: 241-250). The number of airways containing mucus as a percentage of the total airways in the lungs was evaluated.

[11] = system: OVA/alum-induced asthma model; assay: OVA-induced asthma model: BAL eosinophil recruitment (Example 13); assay type: in vivo, BALB/c mice; conditions: percentage of total cells in BAL, 50 mg/kg s.c. twice a week for 4 weeks
Method: The effect of antisense oligonucleotide inhibition of Factor XI and its role in ameliorating asthma was evaluated in an OVA/alum-induced asthma model. Administration of ovalbumin to animals is a well known method to induce […] and has been previously described by Henderson et al. (J. Exp. Med., 1996, 184: 1483-1494).
as §6
Bronchial asthma, even in its mild form, is characterized by local infiltration and activation of inflammatory and immunoeffector cells, including T lymphocytes, macrophages, eosinophils, and mast cells (Smith D. L. et al., Am. Rev. Respir. Dis. 1993. 148: 523-532). The effect of treatment with ISIS 404071 on bronchoalveolar lavage (BAL) eosinophil recruitment was assessed. BAL cells were stained with hemotoxylin and eosin (H&E). The results are presented in Table 49 as a percentage of total cells in BAL.

[12] = day −14 (before start of treatment)
[13] = DBA/1J mice, 20 mg/kg s.c. twice a week for ten weeks, end of study

412213 (antisense eA*eA*eA*e[5mC]*eA*dA*dG*d[5mC]*dA*dA*d[5mC]*d[5mC]*dG*dG*dG*eA*eT*eG*eA*eT) [compound 412213]
% inhibition [1]: 71%

ISIS 449711: microwalk gapmer of Table 53 (antisense eA*e[5mC]*dA*dG*dT*dT*dT*d[5mC]*dT*dG*dG*d[5mC]*eA*eG)
spleen weight (in words) [2]: caused increase in spleen weight
IL-1β level ([3]; 25 mg/kg s.c., day 55): 146 pg/mL
MIP-1β level ([3]; 25 mg/kg s.c., day 55): 91 pg/mL
IL-1β level [3, 12]: 79 pg/mL
MIP-1β level [3, 12]: 24 pg/mL

TCCTGGCATTCTCGAGCATT (eT*e[5mC]*e[5mC]*eT*eG*dG*d[5mC]*dA*dT*dT*d[5mC]*dT*d[5mC]*dG*dA*eG*e[5mC]*eA*eT*eT) [ISIS 404057, 5-10-5 MOE gapmer targeting murine Factor XI, target start site 487]
% inhibition ([4]; 5 mg/kg twice a week for 3 weeks): 40%
% inhibition ([4]; 10 mg/kg twice a week for 3 weeks): 64%
% inhibition ([4]; 25 mg/kg twice a week for 3 weeks): 85%
% inhibition ([4]; 50 mg/kg twice a week for 3 weeks): 95%
amount of arthritis assessed (in words) ([5]; Arthritis Study B, 20 mg/kg twice a week for ten weeks, compared to untreated mice): did not affect the amount of arthritis
body weight (in words) ([6]; Colitis Study B, FIG. 9): did not have any significant change in body weight
Body weight [6]: −16%
Colon length [6]: −11%
Factor XI inhibition in liver (in words) [7]: lack of Factor XI inhibition
Liver Factor XI mRNA [8]: −50%

TCGGAAGC GACTCTTATATG (eT*e[5mC]*eG*eG*eA*dA*dG*d[5mC]*dG*dA*d[5mC]*dT*d[5mC]*dT*dT*eA*eT*eA*eT*eG) [ISIS 421208, control oligonucleotide for ISIS 404071 with 8 mismatches, 5-10-5 MOE gapmer, reference compound]
Liver ALT [9]: 70.06
Liver AST [9]: 165.12
Liver Weight as a % of Body Weight [9]: 6.14%
Spleen Weight as a % of Body Weight [9]: 0.718 % of Body Weight
% of CIA [5, 13]: 81%
% of paws affected [5, 13]: 45%
Average no. of paws affected [5, 13]: 1.7
Clinical severity of CIA [5, 13]: 7.75
Body weight [6]: −10%
Colon length [6]: −33%
Mucus production, % airways containing mucus [10]: 49 % airways
Eosinophils [11]: 51%
Liver Factor XI mRNA [8]: +25%
